Columns and labels:
Experiment in all cases: Binding Assay
Conditions in all cases: pH 7.4; 18 °C
[1] = biological target: Protein kinase C alpha type (Homo sapiens, UniProt P17252)
Description: (§1) [3H]PDBu binding to the C1 domains of MRCK alpha/beta and PKC alpha/delta was measured using the polyethylene glycol precipitation assay.

[2] = biological target: Protein kinase C delta type (Homo sapiens, UniProt Q05655)
Description: as §1

[3] = biological target: Serine/threonine-protein kinase MRCK alpha (Homo sapiens, UniProt Q5VT25)
Description: as §1

[4] = biological target: Serine/threonine-protein kinase MRCK beta (Homo sapiens, UniProt Q9Y5S2)
Description: as §1

Chain of Serine/threonine-protein kinase MRCK beta (Q9Y5S2 whole entry): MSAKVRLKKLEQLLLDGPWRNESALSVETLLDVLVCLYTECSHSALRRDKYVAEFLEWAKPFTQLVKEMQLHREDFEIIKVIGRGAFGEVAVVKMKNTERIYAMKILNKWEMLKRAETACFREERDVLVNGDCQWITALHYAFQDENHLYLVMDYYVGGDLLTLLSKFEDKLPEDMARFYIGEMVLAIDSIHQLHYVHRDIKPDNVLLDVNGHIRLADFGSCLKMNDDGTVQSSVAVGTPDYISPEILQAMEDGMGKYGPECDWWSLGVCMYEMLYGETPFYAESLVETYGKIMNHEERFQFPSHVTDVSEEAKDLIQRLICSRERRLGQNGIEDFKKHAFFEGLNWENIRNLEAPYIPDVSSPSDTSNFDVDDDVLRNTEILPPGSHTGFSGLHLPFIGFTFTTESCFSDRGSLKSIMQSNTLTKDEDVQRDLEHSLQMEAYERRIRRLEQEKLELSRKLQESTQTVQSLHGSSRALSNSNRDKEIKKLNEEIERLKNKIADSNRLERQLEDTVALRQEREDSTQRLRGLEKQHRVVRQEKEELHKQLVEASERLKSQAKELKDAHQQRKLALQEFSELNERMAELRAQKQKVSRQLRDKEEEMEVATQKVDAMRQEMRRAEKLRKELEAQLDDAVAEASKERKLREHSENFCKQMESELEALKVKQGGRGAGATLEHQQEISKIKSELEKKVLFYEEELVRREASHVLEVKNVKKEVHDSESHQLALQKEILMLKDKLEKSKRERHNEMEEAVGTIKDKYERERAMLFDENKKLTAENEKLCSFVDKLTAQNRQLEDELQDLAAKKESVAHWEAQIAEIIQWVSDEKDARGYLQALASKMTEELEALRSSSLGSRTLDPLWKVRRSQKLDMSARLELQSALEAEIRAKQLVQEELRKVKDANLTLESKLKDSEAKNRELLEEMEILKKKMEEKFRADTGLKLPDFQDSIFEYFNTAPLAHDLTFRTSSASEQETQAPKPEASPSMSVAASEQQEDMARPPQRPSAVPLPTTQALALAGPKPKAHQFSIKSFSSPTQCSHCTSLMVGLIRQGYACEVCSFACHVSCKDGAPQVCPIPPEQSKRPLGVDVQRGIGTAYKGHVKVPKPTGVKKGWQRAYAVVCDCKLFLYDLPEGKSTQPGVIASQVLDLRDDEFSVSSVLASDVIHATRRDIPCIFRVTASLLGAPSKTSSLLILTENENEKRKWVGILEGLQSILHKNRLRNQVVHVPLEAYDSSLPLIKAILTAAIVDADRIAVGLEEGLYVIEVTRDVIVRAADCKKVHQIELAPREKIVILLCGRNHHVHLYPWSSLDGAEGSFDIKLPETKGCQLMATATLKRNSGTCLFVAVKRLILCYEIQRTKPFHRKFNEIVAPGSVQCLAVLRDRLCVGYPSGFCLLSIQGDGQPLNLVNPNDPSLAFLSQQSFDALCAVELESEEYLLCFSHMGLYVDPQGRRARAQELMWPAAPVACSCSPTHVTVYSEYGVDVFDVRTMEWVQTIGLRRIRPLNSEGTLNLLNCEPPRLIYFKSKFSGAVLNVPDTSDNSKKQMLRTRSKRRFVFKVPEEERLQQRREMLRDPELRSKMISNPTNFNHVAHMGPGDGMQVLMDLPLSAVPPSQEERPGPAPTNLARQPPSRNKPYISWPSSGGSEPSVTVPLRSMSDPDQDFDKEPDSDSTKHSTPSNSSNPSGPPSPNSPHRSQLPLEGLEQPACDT
Chain of Serine/threonine-protein kinase MRCK alpha (Q5VT25 whole entry): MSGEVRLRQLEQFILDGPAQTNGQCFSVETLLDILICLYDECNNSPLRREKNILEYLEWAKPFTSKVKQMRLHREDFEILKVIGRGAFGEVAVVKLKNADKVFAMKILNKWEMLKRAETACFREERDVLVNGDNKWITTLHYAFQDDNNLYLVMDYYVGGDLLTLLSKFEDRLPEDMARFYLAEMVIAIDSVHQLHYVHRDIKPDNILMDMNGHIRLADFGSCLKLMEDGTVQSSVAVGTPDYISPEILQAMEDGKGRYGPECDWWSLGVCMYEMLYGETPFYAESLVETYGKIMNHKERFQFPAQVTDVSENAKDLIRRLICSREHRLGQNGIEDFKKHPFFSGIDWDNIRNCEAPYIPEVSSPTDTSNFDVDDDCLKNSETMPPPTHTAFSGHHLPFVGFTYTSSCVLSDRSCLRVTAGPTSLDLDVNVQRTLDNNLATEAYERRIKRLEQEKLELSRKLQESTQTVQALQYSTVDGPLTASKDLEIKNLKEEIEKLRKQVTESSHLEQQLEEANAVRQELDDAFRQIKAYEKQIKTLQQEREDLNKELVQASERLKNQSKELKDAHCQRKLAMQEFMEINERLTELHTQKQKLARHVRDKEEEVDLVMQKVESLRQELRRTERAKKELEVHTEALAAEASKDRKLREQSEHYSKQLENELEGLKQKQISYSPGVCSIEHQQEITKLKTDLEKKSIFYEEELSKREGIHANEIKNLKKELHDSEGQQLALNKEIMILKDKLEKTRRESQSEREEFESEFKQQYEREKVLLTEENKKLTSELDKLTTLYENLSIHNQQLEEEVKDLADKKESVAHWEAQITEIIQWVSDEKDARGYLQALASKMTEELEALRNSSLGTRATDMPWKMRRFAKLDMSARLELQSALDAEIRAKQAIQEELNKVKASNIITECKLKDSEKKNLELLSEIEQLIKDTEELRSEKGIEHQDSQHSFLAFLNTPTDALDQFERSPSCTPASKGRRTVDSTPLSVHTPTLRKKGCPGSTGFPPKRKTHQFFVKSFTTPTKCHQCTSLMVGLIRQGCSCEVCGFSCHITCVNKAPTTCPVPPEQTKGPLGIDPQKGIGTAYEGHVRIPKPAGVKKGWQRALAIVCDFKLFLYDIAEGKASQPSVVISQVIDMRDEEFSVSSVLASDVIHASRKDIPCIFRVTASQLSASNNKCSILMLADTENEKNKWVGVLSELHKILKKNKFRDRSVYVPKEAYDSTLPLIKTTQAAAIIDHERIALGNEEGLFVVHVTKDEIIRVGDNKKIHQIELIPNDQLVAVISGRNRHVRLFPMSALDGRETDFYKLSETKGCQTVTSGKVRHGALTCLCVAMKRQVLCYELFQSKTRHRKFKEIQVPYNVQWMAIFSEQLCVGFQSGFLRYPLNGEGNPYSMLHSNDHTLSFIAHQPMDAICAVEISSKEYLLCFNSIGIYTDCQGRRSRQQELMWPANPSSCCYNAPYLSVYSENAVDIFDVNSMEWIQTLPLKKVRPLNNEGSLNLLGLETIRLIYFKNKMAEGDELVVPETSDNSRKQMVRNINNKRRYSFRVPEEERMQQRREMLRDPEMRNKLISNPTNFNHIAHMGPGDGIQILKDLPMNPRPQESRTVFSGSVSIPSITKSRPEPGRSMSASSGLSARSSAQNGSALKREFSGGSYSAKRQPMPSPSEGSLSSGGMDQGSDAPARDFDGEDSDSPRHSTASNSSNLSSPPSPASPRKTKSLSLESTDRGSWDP
Chain of Protein kinase C delta type (Q05655 whole entry): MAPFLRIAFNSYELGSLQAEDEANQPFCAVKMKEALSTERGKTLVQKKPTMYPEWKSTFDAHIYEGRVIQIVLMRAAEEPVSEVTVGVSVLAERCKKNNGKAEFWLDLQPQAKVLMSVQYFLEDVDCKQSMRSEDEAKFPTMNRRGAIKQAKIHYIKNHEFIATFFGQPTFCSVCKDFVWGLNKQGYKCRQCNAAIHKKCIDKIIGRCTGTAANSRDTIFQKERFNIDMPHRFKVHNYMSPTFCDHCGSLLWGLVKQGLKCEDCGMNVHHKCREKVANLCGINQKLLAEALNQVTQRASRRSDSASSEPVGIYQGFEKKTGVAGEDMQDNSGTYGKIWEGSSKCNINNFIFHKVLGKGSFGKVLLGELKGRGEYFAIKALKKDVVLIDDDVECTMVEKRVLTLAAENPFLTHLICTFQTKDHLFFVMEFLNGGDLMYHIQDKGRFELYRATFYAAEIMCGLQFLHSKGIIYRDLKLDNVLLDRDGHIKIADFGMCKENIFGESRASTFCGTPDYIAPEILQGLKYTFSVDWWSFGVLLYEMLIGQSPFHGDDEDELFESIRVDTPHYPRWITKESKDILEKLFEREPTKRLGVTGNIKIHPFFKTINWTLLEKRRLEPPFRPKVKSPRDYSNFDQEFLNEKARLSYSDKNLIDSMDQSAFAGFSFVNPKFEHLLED

SMILES | Ki [1] [nM] | Ki [2] [nM] | Ki [3] [nM] | Ki [4] [nM]
CN(C)c1ccc(/C=C2/CC(CO)(COC(=O)c3ccc([N+](=O)[O-])cc3)OC2=O)cc1 (centres undefined) [DAG-lactone (130C045)] | 4200 | 1.54 | 22600 | 26000
CC(C)CC(C/C=C1/CC(CO)(COC(=O)C(C)(C)C)OC1=O)CC(C)C (centres undefined) [DAG-lactone (HK-434)] | 402 | – | 1030 | 1070
CCCCCCCC(=O)OC[C@H](CO)OC(=O)CCCCCCC | – | – | 2820 | 6960

Reference: BindingDB's records for doi:10.1074/jbc.M707463200 (National Cancer Institute-Bethesda, 2008)
